The record followed here is ChEMBL document CHEMBL1201862, “PubChem BioAssay data set” (2004).

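Protocol summary: plate cells (96-well), add compound at 5 concentrations, incubate 48 h, interpolate endpoints linearly. GI50: concentration for 50% inhibition of growth.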 Activity calls are given as the source filed them. No stated cut-off is given here; in the data, active = GI50 up to about 1.1 µM and inactive = higher.

Assay in all cases: NCI-60 cell line screen, 48 h
For experiment [1], the system named is 786-0.
Experiment [2] concerns A498.
The subject of experiment [3] is A549.
For experiment [4], the system named is ACHN.
Experiment [5] deals with HOP-92.
Experiment [6] concerns HT-29.
Experiment [7] concerns M14.
Experiment [8] has as its system MCF7.
The subject of experiment [9] is MDA-MB-231.
Experiment [10] relates to MOLT-4.
Experiment [11] relates to NCI-H226.
For experiment [12], the system named is NCI-H23.
Experiment [13] relates to NCI-H522.
In experiment [14] the test system is OVCAR-8.
In experiment [15] the test system is SF-268.
Experiment [16] concerns SF-295.
Experiment [17] deals with SF-539.
Experiment [18] has as its system SNB-75.
Experiment [19] concerns SW-620.
Experiment [20] deals with UO-31.

As to `O=C(/C=C/c1ccc(OCc2cccc(Cl)c2)cc1)NO`, the GI50 in experiment [1] was 10.7 µM (inactive); in experiment [2] it was 12.1 µM (inactive); in [3], 18.9 µM (inactive); in experiment [4], 11.3 µM (inactive); in experiment [5], 14.1 µM (inactive); in experiment [6], 13.6 µM (inactive). For the same compound, the GI50 is 21 µM (inactive) in experiment [7]; 39.5 µM (inactive) in [8]; 19.7 µM (inactive) in experiment [9]; 2.67 µM (inactive) in [10]; 14 µM (inactive) in [11]; 11.2 µM (inactive) in experiment [12]. Further, the GI50 in experiment [13] was 7.41 µM (inactive); in [14], 6.31 µM (inactive); in experiment [15], 24.3 µM (inactive); in [16], 17.9 µM (inactive); in experiment [17], 17.2 µM (inactive); in experiment [18], 20.4 µM (inactive). The GI50 in experiment [19] was 10.1 µM (inactive); in experiment [20], 4.78 µM (inactive).
Take `COC(=O)C/N=C1\NC(=S)N(Cc2ccc(OC)cc2)C12CCCC2`: the GI50 in [1], in experiment [2], in experiment [3], in experiment [4], in experiment [5] and in experiment [6] was > 100 µM (inactive) throughout. Moreover, the GI50 in experiment [7], in experiment [8], in [9], in [10], in [11] and in experiment [12] was > 100 µM (inactive) each time. Also, the GI50 in [13], in experiment [14], in experiment [15], in [16], in experiment [17] and in [18] was > 100 µM (inactive) throughout. The GI50 in experiment [19] and in experiment [20] was > 100 µM (inactive) throughout.
With `CC(C)(C)N1NC1C1NN1C(C)(C)C` (stereo unspecified), the GI50 in [1], in experiment [2], in experiment [3], in experiment [4], in experiment [5] and in experiment [6] was > 100 µM (inactive) throughout. The GI50 in experiment [7], in experiment [8], in experiment [9], in experiment [10], in [11] and in experiment [12] was > 100 µM (inactive) each time. Moreover, the GI50 in experiment [13], in experiment [14], in experiment [15], in [16], in experiment [17] and in [18] was > 100 µM (inactive) each time. The GI50 in [19] and in experiment [20] was > 100 µM (inactive) throughout.
In the case of `COc1c2cc([N+](=O)[O-])cc1CN(C(=O)C(F)(F)F)CCOCCN(C(=O)C(F)(F)F)C2`, the GI50 in experiment [1], in [2], in experiment [3], in experiment [4], in experiment [5] and in experiment [6] was > 100 µM (inactive) in each case. In addition, the GI50 in [7], in [8], in experiment [9], in experiment [10], in experiment [11] and in [12] was > 100 µM (inactive) in each case. In addition, the GI50 in [13] was > 100 µM (inactive); in [14], > 100 µM (inactive); in [15], > 100 µM (inactive); in [16], > 100 µM (inactive); in experiment [17] it was > 100 µM (inactive); in experiment [18], 69.7 µM (inactive). In addition, the GI50 in experiment [19] and in experiment [20] was > 100 µM (inactive) in each case.
Consider `O=c1c2cc(Br)cc(Br)c2[nH]c(=S)n1-c1ccc(/N=N/c2ccc(O)c3cccnc23)cc1`, for which the GI50 was 25.7 µM (inactive) in experiment [1]; > 100 µM (inactive) in [2]; 17.8 µM (inactive) in experiment [3]; 25.4 µM (inactive) in experiment [4]; 18 µM (inactive) in experiment [5]; 39.6 µM (inactive) in experiment [6]. The GI50 in [7] is 39.7 µM (inactive); in experiment [8] it was 12.9 µM (inactive); in experiment [9], 32.2 µM (inactive); in experiment [10], 24.8 µM (inactive); in experiment [11], > 100 µM (inactive); in [13], 18.7 µM (inactive). In addition, the GI50 is 23.3 µM (inactive) in experiment [14]; 17.2 µM (inactive) in experiment [15]; 64.9 µM (inactive) in experiment [16]; 11.5 µM (inactive) in experiment [17]; 29.2 µM (inactive) in [18]; 29.8 µM (inactive) in experiment [19]. Further, the GI50 in [20] is 34.9 µM (inactive).
With `Cc1csc(NCc2ccc(Cl)cc2)n1`, the GI50 in experiment [1] was 61.4 µM (inactive); in experiment [2], 40.1 µM (inactive); in experiment [3] it was 40.5 µM (inactive); in experiment [4] it was 70.1 µM (inactive); in experiment [5], 23.4 µM (inactive); in experiment [6], 47.1 µM (inactive). The GI50 in experiment [7] is 45.7 µM (inactive); in [8], 43.3 µM (inactive); in experiment [9], 40.6 µM (inactive); in experiment [10], 35.9 µM (inactive); in experiment [11], 33.8 µM (inactive); in [12], 32.3 µM (inactive). The GI50 in experiment [13] was 28.9 µM (inactive); in experiment [14], 56.2 µM (inactive); in [15] it was 51.2 µM (inactive); in [16], 39.8 µM (inactive); in experiment [17], > 100 µM (inactive); in experiment [18] it was 36.3 µM (inactive). Moreover, the GI50 in [19] was 69.7 µM (inactive); in experiment [20], 37.4 µM (inactive).
`CCOC(=O)c1nc2cc(C(F)(F)F)ccc2nc1Nc1ccc(Cl)c(Cl)c1`: the GI50 in [1] was > 100 µM (inactive); in experiment [2], > 100 µM (inactive); in experiment [3], 84.3 µM (inactive); in experiment [4], > 100 µM (inactive); in experiment [5] it was 24.2 µM (inactive); in [6] it was 66.8 µM (inactive). In addition, the GI50 in [7], in [8], in experiment [9], in experiment [10], in [11] and in experiment [12] was > 100 µM (inactive) in each case. Besides, the GI50 was > 100 µM (inactive) in experiment [13]; > 100 µM (inactive) in [14]; > 100 µM (inactive) in experiment [15]; 74.6 µM (inactive) in experiment [16]; > 100 µM (inactive) in experiment [17]; 58.1 µM (inactive) in [18]. The GI50 in experiment [19] was 73.3 µM (inactive); in experiment [20] it was > 100 µM (inactive).
Take `Sc1nnc(SCc2ccccc2Cl)c2nc[nH]c12`: the GI50 in experiment [1], in experiment [2], in [3], in experiment [4], in experiment [5] and in [6] was > 100 µM (inactive) in each case. The GI50 in experiment [7], in [8], in [9], in experiment [10], in experiment [11] and in experiment [12] was > 100 µM (inactive) in each case. Besides, the GI50 in experiment [13], in [14], in experiment [15], in experiment [16], in [17] and in experiment [18] was > 100 µM (inactive) each time. In addition, the GI50 in experiment [19] and in experiment [20] was > 100 µM (inactive) each time.
For the compound `Cn1c(-c2ccc[se]2)ccc1-c1ccc(CO)[se]1`, the GI50 in experiment [1] was 25.6 µM (inactive); in experiment [2], 0.0389 µM (active); in experiment [3], 52.6 µM (inactive); in experiment [4], 23.2 µM (inactive); in [5] it was 7.41 µM (inactive); in experiment [7] it was > 66.2 µM (inactive). For the same compound, the GI50 was 0.0139 µM (active) in experiment [8]; 32.6 µM (inactive) in [9]; 21.1 µM (inactive) in [10]; 0.302 µM (active) in experiment [11]; 24.9 µM (inactive) in experiment [12]; 27.9 µM (inactive) in [13]. In addition, the GI50 in experiment [14] is 33.1 µM (inactive); in experiment [15], 44 µM (inactive); in [16], 31.3 µM (inactive); in experiment [17] it was 26.9 µM (inactive); in experiment [18], > 49.4 µM (inactive); in [19], 0.133 µM (active). In addition, the GI50 in experiment [20] is 36.3 µM (inactive).
With `C#CCOC(=O)c1ccccc1OC(C)=O`, the GI50 in experiment [1], in [2], in experiment [4], in experiment [5], in experiment [7] and in [8] was > 100 µM (inactive) throughout. Further, the GI50 in experiment [9], in experiment [10], in experiment [11], in [12], in experiment [13] and in [14] was > 100 µM (inactive) in each case. Also, the GI50 in experiment [15], in experiment [16], in experiment [17], in experiment [18], in experiment [19] and in experiment [20] was > 100 µM (inactive) each time.
